Data taken from ChEMBL document CHEMBL1201862, “PubChem BioAssay data set” (2004).
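Test compounds were applied to cells in 96-well plates for 48 hours at 5 doses. GI50 = concentration required for 50% inhibition of growth.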 The source made the active and inactive calls. Cut-off read from the data, not from the text of the source: active = GI50 up to about 1.1 µM and inactive = higher.

Experiments:
Assay in all cases: growth of human tumour cells (NCI), 48 h
M14 = test system: M14
HCT-116 = test system: HCT-116
NCI/ADR-RES = test system: NCI/ADR-RES
SR = test system: SR
OVCAR-8 = test system: OVCAR-8
KM12 = test system: KM12
CCRF-CEM = test system: CCRF-CEM
NCI-H23 = test system: NCI-H23
CAKI-1 = test system: CAKI-1
MDA-MB-231 = test system: MDA-MB-231
MOLT-4 = test system: MOLT-4
UACC-257 = test system: UACC-257
HCC 2998 = test system: HCC 2998
SW-620 = test system: SW-620
NCI-H460 = test system: NCI-H460
OVCAR-4 = test system: OVCAR-4
A549 = test system: A549
IGROV-1 = test system: IGROV-1
SF-539 = test system: SF-539
DU-145 = test system: DU-145
EKVX = test system: EKVX
SK-MEL-28 = test system: SK-MEL-28
SK-MEL-2 = test system: SK-MEL-2
LOX IMVI = test system: LOX IMVI
SK-MEL-5 = test system: SK-MEL-5
SNB-75 = test system: SNB-75
SN12C = test system: SN12C
Hs-578T = test system: Hs-578T
NCI-H522 = test system: NCI-H522
COLO 205 = test system: COLO 205
HOP-92 = test system: HOP-92
TK-10 = test system: TK-10
NCI-H226 = test system: NCI-H226
MCF7 = test system: MCF7
PC-3 = test system: PC-3
HCT-15 = test system: HCT-15
OVCAR-5 = test system: OVCAR-5
MDA-MB-435 = test system: MDA-MB-435
SNB-19 = test system: SNB-19
UACC-62 = test system: UACC-62
T47D = test system: T47D
RXF 393 = test system: RXF 393
MDA-N = test system: MDA-N
ACHN = test system: ACHN
UO-31 = test system: UO-31
RPMI-8226 = test system: RPMI-8226
K562 = test system: K562
U-251 = test system: U-251
786-0 = test system: 786-0
SF-268 = test system: SF-268
A498 = test system: A498
HL-60 = test system: HL-60
SK-OV-3 = test system: SK-OV-3
BT-549 = test system: BT-549
OVCAR-3 = test system: OVCAR-3
HOP-62 = test system: HOP-62
SF-295 = test system: SF-295
HT-29 = test system: HT-29
Malme-3M = test system: Malme-3M

SMILES: C[C@@H]1CC[C@@]2(NC1)O[C@H]1C[C@H]3[C@@H]4CC[C@H]5C[C@@H](O)CC[C@]5(C)[C@H]4CC[C@]3(C)[C@H]1[C@@H]2C
- GI50 (M14): 65.2 µM (inactive)
- GI50 (HCT-116): 45.5 µM (inactive)
- GI50 (NCI/ADR-RES): 30.8 µM (inactive)
- GI50 (SR): 35.5 µM (inactive)
- GI50 (OVCAR-8): 21.5 µM (inactive)
- GI50 (KM12): 27.3 µM (inactive)
- GI50 (CCRF-CEM): > 100 µM (inactive)
- GI50 (NCI-H23): 77.3 µM (inactive)
- GI50 (CAKI-1): > 100 µM (inactive)
- GI50 (MDA-MB-231): 38.1 µM (inactive)
- GI50 (MOLT-4): > 100 µM (inactive)
- GI50 (UACC-257): > 100 µM (inactive)
- GI50 (HCC 2998): 37.2 µM (inactive)
- GI50 (SW-620): 88.9 µM (inactive)
- GI50 (NCI-H460): 54.3 µM (inactive)
- GI50 (OVCAR-4): 26.8 µM (inactive)
- GI50 (A549): > 100 µM (inactive)
- GI50 (IGROV-1): 90.2 µM (inactive)
- GI50 (SF-539): 25.3 µM (inactive)
- GI50 (DU-145): > 100 µM (inactive)
- GI50 (EKVX): > 100 µM (inactive)
- GI50 (SK-MEL-28): > 100 µM (inactive)
- GI50 (SK-MEL-2): > 100 µM (inactive)
- GI50 (LOX IMVI): 32.7 µM (inactive)
- GI50 (SK-MEL-5): 42.1 µM (inactive)
- GI50 (SNB-75): 61.9 µM (inactive)
- GI50 (SN12C): 55.5 µM (inactive)
- GI50 (Hs-578T): 46 µM (inactive)
- GI50 (NCI-H522): > 100 µM (inactive)
- GI50 (COLO 205): 57.1 µM (inactive)
- GI50 (HOP-92): 93.5 µM (inactive)
- GI50 (TK-10): 35.3 µM (inactive)
- GI50 (NCI-H226): > 100 µM (inactive)
- GI50 (MCF7): 51.5 µM (inactive)
- GI50 (PC-3): 82.4 µM (inactive)
- GI50 (HCT-15): 36.9 µM
- GI50 (OVCAR-5): > 100 µM (inactive)
- GI50 (MDA-MB-435): > 100 µM (inactive)
- GI50 (SNB-19): 30.6 µM (inactive)
- GI50 (UACC-62): 57.3 µM (inactive)
- GI50 (T47D): > 100 µM (inactive)
- GI50 (RXF 393): > 100 µM (inactive)
- GI50 (MDA-N): 36 µM (inactive)
- GI50 (ACHN): 33.6 µM (inactive)
- GI50 (UO-31): 42.3 µM (inactive)
- GI50 (RPMI-8226): 31.2 µM (inactive)
- GI50 (K562): 63.1 µM (inactive)
- GI50 (U-251): 61.2 µM (inactive)
- GI50 (786-0): 31.6 µM (inactive)
- GI50 (SF-268): > 100 µM (inactive)
- GI50 (A498): 68.7 µM (inactive)
- GI50 (HL-60): 21.6 µM (inactive)
- GI50 (SK-OV-3): 27.4 µM (inactive)
- GI50 (BT-549): > 100 µM (inactive)
- GI50 (OVCAR-3): 61.7 µM (inactive)
- GI50 (HOP-62): 64.4 µM (inactive)
- GI50 (SF-295): 35.5 µM (inactive)
- GI50 (HT-29): 57.4 µM (inactive)
- GI50 (Malme-3M): > 100 µM (inactive)

SMILES: CC(=O)N(C(=O)CC(=O)N/N=C\c1ccc(Br)c(N(CCC#N)CCC#N)c1)c1ccc(Cl)cc1
- GI50 (M14): 34.5 µM (inactive)
- GI50 (HCT-116): 62.4 µM (inactive)
- GI50 (NCI/ADR-RES): 52.8 µM (inactive)
- GI50 (SR): 44.2 µM (inactive)
- GI50 (OVCAR-8): 54.5 µM (inactive)
- GI50 (KM12): 14.1 µM (inactive)
- GI50 (CCRF-CEM): > 100 µM (inactive)
- GI50 (NCI-H23): 86.1 µM (inactive)
- GI50 (CAKI-1): 44.7 µM (inactive)
- GI50 (MDA-MB-231): 10.6 µM (inactive)
- GI50 (MOLT-4): 42.6 µM (inactive)
- GI50 (HCC 2998): 31 µM (inactive)
- GI50 (SW-620): 93.3 µM (inactive)
- GI50 (NCI-H460): 74.5 µM (inactive)
- GI50 (A549): 27.4 µM (inactive)
- GI50 (IGROV-1): 21.4 µM (inactive)
- GI50 (SF-539): 71.4 µM (inactive)
- GI50 (DU-145): 30.2 µM (inactive)
- GI50 (EKVX): 60.5 µM (inactive)
- GI50 (SK-MEL-28): > 100 µM (inactive)
- GI50 (LOX IMVI): 33.9 µM (inactive)
- GI50 (SNB-75): 54.2 µM (inactive)
- GI50 (SN12C): 7 µM (inactive)
- GI50 (Hs-578T): 52.5 µM (inactive)
- GI50 (COLO 205): 69.8 µM (inactive)
- GI50 (HOP-92): 30.2 µM (inactive)
- GI50 (TK-10): 27.8 µM (inactive)
- GI50 (NCI-H226): 36.1 µM (inactive)
- GI50 (MCF7): 52.7 µM (inactive)
- GI50 (PC-3): 96.6 µM (inactive)
- GI50 (HCT-15): 14 µM
- GI50 (OVCAR-5): 11.8 µM (inactive)
- GI50 (MDA-MB-435): 27.5 µM (inactive)
- GI50 (SNB-19): 25.9 µM (inactive)
- GI50 (UACC-62): 7.55 µM (inactive)
- GI50 (T47D): 43.3 µM (inactive)
- GI50 (RXF 393): > 100 µM (inactive)
- GI50 (MDA-N): 41.3 µM (inactive)
- GI50 (ACHN): 14.5 µM (inactive)
- GI50 (UO-31): 24.8 µM (inactive)
- GI50 (RPMI-8226): 81.8 µM (inactive)
- GI50 (K562): 60 µM (inactive)
- GI50 (U-251): 46.3 µM (inactive)
- GI50 (786-0): 45.9 µM (inactive)
- GI50 (SF-268): > 100 µM (inactive)
- GI50 (A498): 33.4 µM (inactive)
- GI50 (HL-60): 35.4 µM (inactive)
- GI50 (SK-OV-3): 49.7 µM (inactive)
- GI50 (BT-549): 58.9 µM (inactive)
- GI50 (OVCAR-3): 47.9 µM (inactive)
- GI50 (HOP-62): 44.7 µM (inactive)
- GI50 (SF-295): 22.7 µM (inactive)
- GI50 (Malme-3M): 51.6 µM (inactive)
